Consider 28 compounds from patent publication US7846959B2, “Raf modulators and methods of use” (Exelixis, Inc., priority 2004, dated 2010).

Assay [1] has as its target c-Raf (Homo sapiens, UniProt P04049). Put plainly: Luciferase-coupled chemiluminescence kinase assay (ATP consumption), c-Raf. Format: biochemical. Particulars: read-out: cRaf-1 IC50. The procedure: (§1) Tyrosine kinase activity is determined by 1) measurement of kinase-dependent ATP consumption by in the presence of a generic substrate such as […], tyrosine (pEY), by luciferase/luciferin-mediated chemiluminescence or; 2) incorporation of radioactive phosphate derived from ^33P-ATP into a generic substrate which has been adsorbed onto the well surface of polystyrene microtiter plates. Phosphorylated substrate products are quantified by scintillation spectrometry.
(§2) Luciferase-Coupled Chemiluminescence Assay Protocol
(§3) Kinase activity is measured as the percent of ATP consumed following the kinase reaction using luciferase-luciferin-coupled chemiluminescence. Reactions were conducted in 384-well white, medium binding microtiter plates (Greiner). Kinase reactions were initiated by combining test compounds, ATP and kinase in a 20 uL volume. The reaction mixture was incubated at ambient temperature for 3 hrs. For c-Raf, B-Raf, and B-RafV599E, […] of the enzyme was pre-incubated with compound in 20 mM Tris pH 7.5, 10 mM MgCl2, 0.03% TX-100, and 1 mM DTT for 30 minutes at room temperature. Following the kinase reaction, a 20 μL aliquot of luciferase-luciferin mix was added and the chemiluminescence signal measured using a Victor^2 plate reader (Perkin Elmer). The luciferase-luciferin mix contained 50 mM HEPES, pH 7.8, 67 mM oxalic acid (pH 7.8), 5 (or 50) mM DTT, 0.4% Triton X-100, 0.25 mg/mL coenzyme A, 63 μM AMP, 28 μg/mL luciferin and 40,000 units/mL luciferase. Total ATP consumption was limited to 25-60% and the IC50 values correlate well with those determined by radiometric assays.

The target in assay [2] is B-Raf (Homo sapiens, UniProt P15056). As to the kind of experiment: Luciferase-coupled chemiluminescence kinase assay (ATP consumption), B-Raf. Particulars: read-out: bRaf IC50. Format: biochemical. The procedure: as §1, §2, §3
Sequence of B-Raf (P15056 whole entry): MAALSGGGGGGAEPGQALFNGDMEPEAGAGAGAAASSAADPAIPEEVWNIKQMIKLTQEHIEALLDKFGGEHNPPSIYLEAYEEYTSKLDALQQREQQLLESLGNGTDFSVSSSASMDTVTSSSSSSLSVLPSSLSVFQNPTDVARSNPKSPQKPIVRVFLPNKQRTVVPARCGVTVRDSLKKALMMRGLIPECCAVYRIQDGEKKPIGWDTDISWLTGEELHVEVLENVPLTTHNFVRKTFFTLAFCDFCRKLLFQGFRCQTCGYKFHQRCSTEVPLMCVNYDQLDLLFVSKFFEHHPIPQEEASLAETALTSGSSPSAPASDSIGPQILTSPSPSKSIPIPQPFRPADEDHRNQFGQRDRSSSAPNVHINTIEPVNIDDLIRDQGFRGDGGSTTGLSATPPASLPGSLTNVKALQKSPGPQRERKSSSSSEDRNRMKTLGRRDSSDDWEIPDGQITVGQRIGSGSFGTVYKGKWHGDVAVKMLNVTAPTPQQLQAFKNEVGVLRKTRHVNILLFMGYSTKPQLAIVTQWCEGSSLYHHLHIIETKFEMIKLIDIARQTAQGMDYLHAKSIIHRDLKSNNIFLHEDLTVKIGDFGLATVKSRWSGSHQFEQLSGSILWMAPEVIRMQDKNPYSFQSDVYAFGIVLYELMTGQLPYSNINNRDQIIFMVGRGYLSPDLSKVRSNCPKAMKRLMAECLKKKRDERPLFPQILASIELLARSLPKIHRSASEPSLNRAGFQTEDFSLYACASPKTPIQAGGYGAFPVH

Sequence of c-Raf (P04049 whole entry): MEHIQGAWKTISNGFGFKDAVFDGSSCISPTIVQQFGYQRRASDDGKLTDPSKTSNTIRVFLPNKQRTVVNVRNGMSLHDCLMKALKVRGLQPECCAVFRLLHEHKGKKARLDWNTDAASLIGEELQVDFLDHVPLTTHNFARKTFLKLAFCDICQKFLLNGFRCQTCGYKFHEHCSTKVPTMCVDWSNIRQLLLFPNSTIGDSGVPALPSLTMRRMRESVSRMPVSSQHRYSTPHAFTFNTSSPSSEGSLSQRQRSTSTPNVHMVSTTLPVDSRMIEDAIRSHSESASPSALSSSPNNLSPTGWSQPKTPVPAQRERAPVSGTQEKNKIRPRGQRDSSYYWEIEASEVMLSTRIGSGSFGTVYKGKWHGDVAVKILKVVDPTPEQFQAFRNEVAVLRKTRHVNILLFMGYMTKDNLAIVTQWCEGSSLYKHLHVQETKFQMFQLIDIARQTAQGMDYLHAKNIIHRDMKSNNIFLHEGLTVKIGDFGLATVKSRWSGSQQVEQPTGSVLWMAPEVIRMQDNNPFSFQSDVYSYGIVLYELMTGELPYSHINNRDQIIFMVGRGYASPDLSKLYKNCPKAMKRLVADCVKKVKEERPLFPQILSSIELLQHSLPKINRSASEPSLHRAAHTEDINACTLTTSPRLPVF

Consider `COc1cccc(CN2C(=O)c3ccccc3C2(O)c2ccc3c(c2)NC(=O)CO3)c1OC` (centres unmarked) [Entry 54], for which the IC50 in assay [1] and in assay [2] was at least 10000 nM in each case.
Regarding `O=C1COc2ccc(C3(O)c4ccccc4C(=O)N3Cc3cccc(I)c3)cc2N1` (centres unmarked) [Entry 55, 6-{1-hydroxy-2-[(3-iodophenyl)methyl]-3-oxo-2,3-dihydro-1H-isoindol-1-yl}-2H-1,4-benzoxazin-3(4H)-one], the concentration for half-maximal inhibition (IC50) in assay [1] and in assay [2] was 1000 to 10000 nM in each case.
With `O=C1COc2ccc(C3(O)c4ccccc4C(=O)N3Cc3cccc(OC(F)(F)F)c3)cc2N1` (centres unmarked) [Entry 56, 6-[1-hydroxy-3-oxo-2-({3-[(trifluoromethyl)oxy]phenyl}methyl)-2,3-dihydro-1H-isoindol-1-yl]-2H-1,4-benzoxazin-3(4H)-one], the 50% inhibitory concentration (IC50) in assay [1] and in assay [2] was at least 10000 nM throughout.
With `CSc1ccccc1CN1C(=O)c2ccccc2C1(O)c1ccc2c(c1)NC(=O)CO2` (centres unmarked) [Entry 57, 6-(1-hydroxy-2-{[2-(methylthio)phenyl]methyl}-3-oxo-2,3-dihydro-1H-isoindol-1-yl)-2H-1,4-benzoxazin-3(4H)-one], the IC50 in assay [1] and in assay [2] was at least 10000 nM throughout.
Regarding `O=C1COc2ccc(C3(O)c4ccccc4C(=O)N3c3ccc(F)c(F)c3)cc2N1` (centres unmarked) [Entry 58, 6-[2-(3,4-difluorophenyl)-1-hydroxy-3-oxo-2,3-dihydro-1H-isoindol-1-yl]-2H-1,4-benzoxazin-3(4H)-one], the IC50 in assay [1] and in assay [2] was 1000 to 10000 nM each time.
In the case of `CC(C)c1cccc(N2C(=O)c3ccccc3C2(O)c2ccc3c(c2)NC(=O)CO3)c1` (centres unmarked) [Entry 59, 6-{1-hydroxy-2-[3-(1-methylethyl)phenyl]-3-oxo-2,3-dihydro-1H-isoindol-1-yl}-2H-1,4-benzoxazin-3(4H)-one], the 50% inhibitory concentration (IC50) in assay [1] and in assay [2] was 100 to 1000 nM each time.
On to `O=C1COc2ccc(C3(O)c4ccccc4C(=O)N3c3cccc(OC(F)(F)F)c3)cc2N1` (centres unmarked) [Entry 60, 6-(1-hydroxy-3-oxo-2-{3-[(trifluoromethyl)oxy]phenyl}-2,3-dihydro-1H-isoindol-1-yl)-2H-1,4-benzoxazin-3(4H)-one], for which the 50% inhibitory concentration (IC50) in assay [1] and in assay [2] was at least 10000 nM each time.
On to `O=C1COc2ccc(C3(O)c4ccccc4C(=O)N3c3cccc(C(F)(F)F)c3)cc2N1` (centres unmarked) [Entry 61, 6-{1-hydroxy-3-oxo-2-[3-(trifluoromethyl)phenyl]-2,3-dihydro-1H-isoindol-1-yl}-2H-1,4-benzoxazin-3(4H)-one], for which the 50% inhibitory concentration (IC50) in assay [1] was 100 to 1000 nM; in assay [2], 1000 to 10000 nM.
For `NS(=O)(=O)c1cccc(N2C(=O)c3ccccc3C2(O)c2ccc3c(c2)NC(=O)CO3)c1` (centres unmarked) [Entry 62, 3-[1-hydroxy-3-oxo-1-(3-oxo-3,4-dihydro-2H-1,4-benzoxazin-6-yl)-1,3-dihydro-2H-isoindol-2-yl]benzenesulfonamide], in that order: 1000 to 10000 nM and at least 10000 nM.
On to `COc1ccc(Cl)cc1N1C(=O)c2ccccc2C1(O)c1ccc2c(c1)NC(=O)CO2` (centres unmarked) [Entry 63, 6-{2-[5-chloro-2-(methyloxy)phenyl]-1-hydroxy-3-oxo-2,3-dihydro-1H-isoindol-1-yl}-2H-1,4-benzoxazin-3(4H)-one], for which the figures for the IC50 in assay [1] and in assay [2] were at least 10000 nM and 1000 to 10000 nM, respectively.
For `O=C1COc2ccc(C3(O)c4ccccc4C(=O)N3c3ccc(F)c(C(F)(F)F)c3)cc2N1` (centres unmarked) [Entry 64, 6-{2-[4-fluoro-3-(trifluoromethyl)phenyl]-1-hydroxy-3-oxo-2,3-dihydro-1H-isoindol-1-yl}-2H-1,4-benzoxazin-3(4H)-one], in that order: at least 10000 nM and at least 10000 nM.
Turning to `O=C1c2ccccc2C(O)(c2ccc3cc[nH]c3c2)N1Cc1ccccc1` (centres unmarked) [Entry 65, 3-hydroxy-3-(1H-indol-6-yl)-2-(phenylmethyl)-2,3-dihydro-1H-isoindol-1-one], the half-maximal inhibitory concentration (IC50) in assay [1] and in assay [2] was at least 10000 nM in each case.
Take `O=C1COc2ccc(C3(O)c4ccccc4C(=O)N3c3cc(F)cc(I)c3)cc2N1` (centres unmarked) [Entry 66, 6-[2-(3-fluoro-5-iodophenyl)-1-hydroxy-3-oxo-2,3-dihydro-1H-isoindol-1-yl]-2H-1,4-benzoxazin-3(4H)-one]: the 50% inhibitory concentration (IC50) in assay [1] and in assay [2] was 1000 to 10000 nM throughout.
As to `Nc1cccc(N2C(=O)c3ccccc3C2(O)c2ccc3c(c2)NC(=O)CO3)c1` (centres unmarked) [Entry 67, 6-[2-(3-aminophenyl)-1-hydroxy-3-oxo-2,3-dihydro-1H-isoindol-1-yl]-2H-1,4-benzoxazin-3(4H)-one], the half-inhibitory concentration (IC50) in assay [1] and in assay [2] was 100 to 1000 nM each time.
On to `O=C1COc2ccc(C3(O)c4ccccc4C(=O)N3c3cc(F)cc(F)c3)cc2N1` (centres unmarked) [Entry 68, 6-[2-(3,5-difluorophenyl)-1-hydroxy-3-oxo-2,3-dihydro-1H-isoindol-1-yl]-2H-1,4-benzoxazin-3(4H)-one], for which the 50% inhibitory concentration (IC50) in assay [1] and in assay [2] was 1000 to 10000 nM each time.
In the case of `CS(=O)(=O)c1cccc(N2C(=O)c3ccccc3C2(O)c2ccc3c(c2)NC(=O)CO3)c1` (centres unmarked) [Entry 69, 6-{1-hydroxy-2-[3-(methylsulfonyl)phenyl]-3-oxo-2,3-dihydro-1H-isoindol-1-yl}-2H-1,4-benzoxazin-3(4H)-one], the IC50 in assay [1] and in assay [2] was at least 10000 nM in each case.
Take `CCOC(=O)c1cccc(N2C(=O)c3ccccc3C2(O)c2ccc3c(c2)NC(=O)CO3)c1` (centres unmarked) [Entry 70, ethyl 3-[1-hydroxy-3-oxo-1-(3-oxo-3,4-dihydro-2H-1,4-benzoxazin-6-yl)-1,3-dihydro-2H-isoindol-2-yl]benzoate]: the 50% inhibitory concentration (IC50) in assay [1] and in assay [2] was at least 10000 nM each time.
On to `N#Cc1cccc(N2C(=O)c3ccccc3C2(O)c2ccc3c(c2)NC(=O)CO3)c1` (centres unmarked) [Entry 71, 3-[1-hydroxy-3-oxo-1-(3-oxo-3,4-dihydro-2H-1,4-benzoxazin-6-yl)-1,3-dihydro-2H-isoindol-2-yl]benzonitrile], for which the half-inhibitory concentration (IC50) in assay [1] and in assay [2] was 1000 to 10000 nM in each case.
As to `O=C1COc2ccc(C3(O)c4ccccc4C(=O)N3c3ccccc3Cl)cc2N1` (centres unmarked) [Entry 72, 6-[2-(2-chlorophenyl)-1-hydroxy-3-oxo-2,3-dihydro-1H-isoindol-1-yl]-2H-1,4-benzoxazin-3(4H)-one], the IC50 in assay [1] and in assay [2] was 1000 to 10000 nM in each case.
In the case of `Nc1cc(Cl)cc(N2C(=O)c3ccccc3C2(O)c2ccc3c(c2)NC(=O)CO3)c1` (centres unmarked) [Entry 73, 6-[2-(3-amino-5-chlorophenyl)-1-hydroxy-3-oxo-2,3-dihydro-1H-isoindol-1-yl]-2H-1,4-benzoxazin-3(4H)-one], the IC50 in assay [1] and in assay [2] was below 100 nM in each case.
Regarding `Cc1ccc(Cl)cc1N1C(=O)c2ccccc2C1(O)c1ccc2c(c1)NC(=O)CO2` (centres unmarked) [Entry 74, 6-[2-(5-chloro-2-methylphenyl)-1-hydroxy-3-oxo-2,3-dihydro-1H-isoindol-1-yl]-2H-1,4-benzoxazin-3(4H)-one], the IC50 in assay [1] and in assay [2] was below 100 nM in each case.
For the compound `Cc1c(Cl)cccc1N1C(=O)c2ccccc2C1(O)c1ccc2c(c1)NC(=O)CO2` (centres unmarked) [Entry 75, 6-[2-(3-chloro-2-methylphenyl)-1-hydroxy-3-oxo-2,3-dihydro-1H-isoindol-1-yl]-2H-1,4-benzoxazin-3(4H)-one], the IC50 in assay [1] and in assay [2] was 100 to 1000 nM in each case.
For `CCc1cccc(N2C(=O)c3ccccc3C2(O)c2ccc3c(c2)NC(=O)CO3)c1` (centres unmarked) [Entry 76, 6-[2-(3-ethylphenyl)-1-hydroxy-3-oxo-2,3-dihydro-1H-isoindol-1-yl]-2H-1,4-benzoxazin-3(4H)-one], the IC50 in assay [1] and in assay [2] was 100 to 1000 nM in each case.
Take `C#Cc1cccc(N2C(=O)c3ccccc3C2(O)c2ccc3c(c2)NC(=O)CO3)c1` (centres unmarked) [Entry 77, 6-[2-(3-ethynylphenyl)-1-hydroxy-3-oxo-2,3-dihydro-1H-isoindol-1-yl]-2H-1,4-benzoxazin-3(4H)-one]: the IC50 in assay [1] and in assay [2] was 100 to 1000 nM throughout.
For the compound `O=C1COc2ccc(C3(O)c4ccccc4C(=O)N3c3cccc(O)c3)cc2N1` (centres unmarked) [Entry 78, 6-[1-hydroxy-2-(3-hydroxyphenyl)-3-oxo-2,3-dihydro-1H-isoindol-1-yl]-2H-1,4-benzoxazin-3(4H)-one], the IC50 in assay [1] and in assay [2] was 1000 to 10000 nM in each case.
Consider `O=C1COc2ccc(C3(O)c4ccccc4C(=O)N3c3cccc(Oc4ccccc4)c3)cc2N1` (centres unmarked) [Entry 79, 6-{1-hydroxy-3-oxo-2-[3-(phenyloxy)phenyl]-2,3-dihydro-1H-isoindol-1-yl}-2H-1,4-benzoxazin-3(4H)-one], for which the figures for the half-inhibitory concentration (IC50) in assay [1] and in assay [2] were 100 to 1000 nM and 1000 to 10000 nM, respectively.
Take `O=C1COc2ccc(C3(O)c4ccccc4C(=O)N3c3cccc(OCc4ccccc4)c3)cc2N1` (centres unmarked) [Entry 80, 6-(1-hydroxy-3-oxo-2-{3-[(phenylmethyl)oxy]phenyl}-2,3-dihydro-1H-isoindol-1-yl)-2H-1,4-benzoxazin-3(4H)-one]: the IC50 in assay [1] and in assay [2] was at least 10000 nM throughout.
`NC(=O)c1cccc(N2C(=O)c3ccccc3C2(O)c2ccc3c(c2)NC(=O)CO3)c1` (centres unmarked) [Entry 81, 3-[1-hydroxy-3-oxo-1-(3-oxo-3,4-dihydro-2H-1,4-benzoxazin-6-yl)-1,3-dihydro-2H-isoindol-2-yl]benzamide]: the IC50 in assay [1] and in assay [2] was 1000 to 10000 nM throughout.

By IC50 is commonly meant the concentration needed to halve the response being measured.
